# Values quoted from earlier work, collected in patent publication US20070110715A1, “Treatment of alzheimer's disease” (Ares Trading S.A., priority 2003, published 2007).
# System: Alzheimer's disease risk
# Details: postmenopausal women using hormone replacement
substance,measurement,value
estrogen,reduction in disease risk (AD),~50%
